Reference: paper PMC9667936, “Functional mapping of the 14-3-3 hub protein as a guide to design 14-3-3 molecular glues” (Chemical Science, 2022)
Where a SMILES comes first, the peptide text is derived from it. [ ]: non-standard residue; d: D form. The star is where a group is joined. ξ: configuration not given here. FITC = O=C1OC2(c3ccc(O)cc3Oc3cc(O)ccc32)c2ccc(NC(=S)*)cc21; Phe(4-NO2) = N[C@@H](Cc1ccc([N+](=O)[O-])cc1)C(=O)O; ξAla(4-thiazolyl) = NC(Cc1cscn1)C(=O)O; pS = N[C@@H](COP(=O)(O)O)C(=O)O; β3hS = N[C@@H](CO)CC(=O)O; Nva = CCC[C@H](N)C(=O)O; AEA = NCCOCC(=O)O

Target: T1, 14-3-3γ (Homo sapiens, UniProt P61981)
T1 construct: made in house; host or cells: E. coli NiCo21 (DE3)
T1 sequence (P61981 1-247): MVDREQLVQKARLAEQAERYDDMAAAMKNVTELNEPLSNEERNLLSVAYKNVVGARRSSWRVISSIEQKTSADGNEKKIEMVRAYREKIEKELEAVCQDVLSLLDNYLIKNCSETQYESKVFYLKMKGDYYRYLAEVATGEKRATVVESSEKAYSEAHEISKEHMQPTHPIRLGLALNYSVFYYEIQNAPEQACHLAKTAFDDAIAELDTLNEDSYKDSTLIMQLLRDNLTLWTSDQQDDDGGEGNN
Assay: Fluorescence anisotropy (FA) binary binding study: 14-3-3 titrated to fluorescein-labelled peptide
Settings: for individual ΔΔG of removed residue: ΔG relative to the previously truncated peptide; for Fold change to previous / ΔG / ΔΔG (to previous): Table S3
Description: 14-3-3γ protein expression (FP/ITC experiments)
(§1) A pPROEX HTb expression vector encoding the human 14-3-3 protein gamma (14-3-3γ) with an N-terminal his6-tag was transformed by heat shock into NiCo21 (DE3) competent cells. Single colonies were cultured in 50 mL LB medium (100 µg/mL ampicillin). After overnight incubation at 37 °C, cultures were transferred to 2 L TB media (100 µg/mL ampicillin, 1 mM MgCl2) and incubated at 37 °C until an OD600 nm of 0.8-1.2 was reached. Protein expression was then induced with 0.4 mM isopropyl-β-d-thiogalactoside (IPTG), and cultures were incubated overnight at 18 °C. Cells were harvested by centrifugation (8600 rpm, 20 minutes, 4 °C) and resuspended in lysis buffer (50 mM Hepes, pH 8.0, 300 mM NaCl, 12.5 mM imidazole, 5 mM MgCl2, 2 mM βME) containing cOmplete™ EDTA-free Protease Inhibitor Cocktail tablets (1 tablet/100 ml lysate) and benzonase (1 µl/100 ml). After lysis using a C3 Emulsiflex-C3 homogenizer (Avestin), the cell lysate was cleared by centrifugation (20000 rpm, 30 minutes, 4 °C) and purified using Ni2+-affinity chromatography (Ni-NTA superflow cartridges, Qiagen).
Typically two 5 mL columns (flow 5 mL/min) were used for a 2 L culture in which the lysate was loaded on the column washed with 10 CV wash buffer (50 mM Hepes, pH 8.0, 300 mM NaCl, 25 mM imidazole, 2 mM βME) and eluted in several fractions (2-4 CV) of elution buffer (50 mM Hepes, pH 8.0, 300 mM NaCl, 250 mM imidazole, 2 mM βME). Fractions containing the 14-3-3 protein were combined and dialyzed into 25 mM HEPES pH 8.0, 100 mM NaCl, 10 mM MgCl2, 500 µM TCEP. Finally, the protein was concentrated to ∼60 mg/mL, analyzed Q-Tof LC/MS, and aliquots were flash-frozen for storage at […]
as §1, with “sigma truncated after T231 (14-3-3σΔc) and” for “gamma (14-3-3γ)”, “tablet/ 100” for “tablet/100”, “µl/ 100” for “µl/100”, “ml).” for “ml). After lysis using a C3 Emulsiflex-C3 homogenizer (Avestin), the cell lysate was cleared by centrifugation (20000 rpm, 30 minutes, 4 °C) and purified using Ni2+-affinity chromatography (Ni-NTA superflow cartridges, Qiagen).”
After lysis using a C3 Emulsiflex-C3 homogenizer (Avestin), the cell lysate was cleared by centrifugation (20000 rpm, 30 minutes, 4 °C) and purified using Ni2+-affinity chromatography (Ni-NTA superflow cartridges, Qiagen). Typically two 5 mL columns were used for a 2 L culture in which the lysate was loaded on the column washed with 10 CV wash buffer (50 mM Hepes, pH 8.0, 300 mM NaCl, 25 mM imidazole, 2 mM βME) and eluted with several fractions (2-4 CV) of elution buffer (50 mM Hepes, pH 8.0, 300 mM NaCl, 250 mM imidazole, 2 mM βME). Fractions containing the 14-3-3 protein were combined and dialyzed into 25 mM HEPES pH 8.0, 200 mM NaCl, 10 mM MgCl2, 2 mM βME. In addition, 1 mg TEV was added for each 100 mg purified protein to remove the purification tag. The cleaved sample was then again loaded on a 10 mL Ni-NTA column to separate the cleaved product from the expression tag and residual uncleaved protein. The flowthrough was loaded on a Superdex 75 pg 16/60 size exclusion column (GE Life Sciences) using 25 mM HEPES, 100 mM NaCl, 10 mM MgCl2, 500 μM TCEP (adjusted to pH=8.0) as running buffer. Fractions containing the 14-3-3 protein were pooled and concentrated to ∼60 mg/mL, analyzed Q-Tof LC/MS, and aliquots were flash-frozen for storage at −80 […]
The peptides 1 and 2a-d were synthesized on 50 µmol scale on a Rink amide MBHA resin […]

[1] = FA KD of peptide divided by KD of previous (one amino acid longer) peptide, mean of n = 3
[2] = KD / KD of previous peptide, replicate 1
[3] = KD / KD of previous peptide, replicate 2
[4] = KD / KD of previous peptide, replicate 3
[5] = calculated from FA KD, mean of n = 3
[6] = ΔG minus ΔG of previous peptide, FA, replicate 1
[7] = ΔG minus ΔG of previous peptide, FA, replicate 2
[8] = ΔG minus ΔG of previous peptide, FA, replicate 3
[9] = ΔG of peptide minus ΔG of previous (one amino acid longer) peptide, FA, mean of n = 3

CCC[C@H](NC(=O)[C@@H](CCCCN)NC(=O)COCCNC(=S)Nc1ccc2c(c1)C(=O)OC21c2ccc(O)cc2Oc2cc(O)ccc21)C(=O)N[C@@H](Cc1ccc([N+](=O)[O-])cc1)C(=O)NC(Cc1cscn1)C(=O)N[C@@H](COP(=O)(O)O)C(=O)N[C@@H](Cc1ccc([N+](=O)[O-])cc1)C(=O)N[C@@H](CO)CC(N)=O (stereo partly drawn) [2g] ({FITC-AEA}-[dK][Nva][Phe(4-NO2)][ξAla(4-thiazolyl)][pS][Phe(4-NO2)][β3hS]-NH2)
individual ΔΔG of removed residue (FA): 0.4 kcal/mol
Fold change to previous [1]: 1,85
Fold change to previous [2]: 1,92
Fold change to previous [3]: 1,84
Fold change to previous [4]: 1,79
ΔG [5]: -7,67 kcal/mol
ΔG (from FA KD, replicate 1): -7,71 kcal/mol
ΔG (from FA KD, replicate 2): -7,59 kcal/mol
ΔG (from FA KD, replicate 3): -7,73 kcal/mol
ΔΔG (to previous) [6]: 0,39 kcal/mol
ΔΔG (to previous) [7]: 0,36 kcal/mol
ΔΔG (to previous) [8]: 0,34 kcal/mol
ΔΔG (to previous) [9]: 0,36 kcal/mol

CCC[C@H](NC(=O)[C@@H](CCCCN)NC(=O)COCCNC(=S)Nc1ccc2c(c1)C(=O)OC21c2ccc(O)cc2Oc2cc(O)ccc21)C(=O)N[C@@H](Cc1ccc([N+](=O)[O-])cc1)C(=O)NC(Cc1cscn1)C(=O)N[C@@H](COP(=O)(O)O)C(=O)N[C@@H](Cc1ccc([N+](=O)[O-])cc1)C(N)=O (some centres unmarked) [2h] ({FITC-AEA}-[dK][Nva][Phe(4-NO2)][ξAla(4-thiazolyl)][pS][Phe(4-NO2)]-NH2)
individual ΔΔG of removed residue (FA): 0.6 kcal/mol
Fold change to previous [1]: 2,92
Fold change to previous [2]: 2,91
Fold change to previous [3]: 2,67
Fold change to previous [4]: 3,19
ΔG [5]: -7,04 kcal/mol
ΔG (from FA KD, replicate 1): -7,08 kcal/mol
ΔG (from FA KD, replicate 2): -7,00 kcal/mol
ΔG (from FA KD, replicate 3): -7,04 kcal/mol
ΔΔG (to previous) [6]: 0,63 kcal/mol
ΔΔG (to previous) [7]: 0,58 kcal/mol
ΔΔG (to previous) [8]: 0,69 kcal/mol
ΔΔG (to previous) [9]: 0,63 kcal/mol

CCC[C@H](NC(=O)[C@@H](CCCCN)NC(=O)COCCNC(=S)Nc1ccc2c(c1)C(=O)OC21c2ccc(O)cc2Oc2cc(O)ccc21)C(=O)N[C@@H](Cc1ccc([N+](=O)[O-])cc1)C(=O)NC(Cc1cscn1)C(=O)N[C@@H](COP(=O)(O)O)C(N)=O (some centres unmarked) [2i] ({FITC-AEA}-[dK][Nva][Phe(4-NO2)][ξAla(4-thiazolyl)][pS]-NH2)
fold change in binding affinity on truncation (FA KD relative to the previous (one amino acid longer) peptide): four-fold
cumulative ΔΔG of truncating the entire N- or C-terminus (FA, relative to peptide 1 (2d: entire N-terminus; 2i: entire C-terminus)): 4.3 kcal/mol
ΔΔG C-term (cumulative, whole C-terminus removed) (Table S3, C-term = 2i relative to 1, FA, mean of n = 3): 4,31 kcal/mol
ΔΔG C-term (cumulative) (Table S3, C-term = 2i relative to 1, FA, replicate 1): 4,39 kcal/mol
ΔΔG C-term (cumulative) (Table S3, C-term = 2i relative to 1, FA, replicate 2): 4,30 kcal/mol
ΔΔG C-term (cumulative) (Table S3, C-term = 2i relative to 1, FA, replicate 3): 4,23 kcal/mol
Fold change to previous [1]: 4,04
Fold change to previous [2]: 4,23
Fold change to previous [3]: 3,56
Fold change to previous [4]: 4,33
ΔG [5]: -6,22 kcal/mol
ΔG (from FA KD, replicate 1): -6,22 kcal/mol
ΔG (from FA KD, replicate 2): -6,25 kcal/mol
ΔG (from FA KD, replicate 3): -6,18 kcal/mol
ΔΔG (to previous) [6]: 0,85 kcal/mol
ΔΔG (to previous) [7]: 0,75 kcal/mol
ΔΔG (to previous) [8]: 0,87 kcal/mol
ΔΔG (to previous) [9]: 0,82 kcal/mol
